{"source": "patent US20160000796A1", "about": "“PHARMACEUTICAL COMPOSITION FOR USE IN PREVENTION OR TREATMENT OF CANCER” (priority 2013, published 2016)", "key": {"[1]": {"test_system": "SYK-11L (+) (non-virus-producing ATL cell line)", "experiment": "Cellular proliferation (MTS assay), SYK-11L (+)", "assay_type": "cell-based", "description": "(§1) Each nucleoside analogue reverse transcriptase inhibitor was added to the medium for cells at a final concentration of 100 μM. Cells were seeded on a 96-well plate at a concentration of 1×10^4 cells/100 μL/well and cultured for 4 hours (Day 0), 48 hours (Day 2) or 96 hours (Day 4). A medium added DMSO (solvent control) alone was used as a control. Cellular proliferation was examined by MTS assay. Specifically, after the cells were cultured for a predetermined time, a reagent for cellular proliferation test, Aqueous One Solution Cell Proliferation (trade name, manufactured by Promega), was added to the cells. Four hours later, absorbance at 490 nm was measured. The cellular proliferation was represented by a ratio relative to that of the control (solvent control) on Day 0 that was regarded as 1.\nThis example used HTLV-1-infected cell lines (non-virus-producing ATL cell lines): ED40515 (−), ED40515 (+), and ATL43T (all were provided by Prof. Michiyuki Maeda who produced the cells); and SYK-11L (+) (prepared in the laboratory of the inventors).\nThe six types of nucleoside analogue reverse transcriptase inhibitors as used in Example 1 were used and cellular proliferation was examined in the same manner as in Example 1. […]"}, "HTLV-1": {"test_system": "HTLV-1", "experiment": "Measurement of amount of virus (HTLV-1 P19 ELISA), MT2", "assay_type": "cell-based, human T-cell leukemia virus type 1", "details": "100 μM, Day 0, 2, 4, 7, compared among six NRTIs", "description": "HTLV-1-producing cell lines, MT2 (transformant with HTLV-1, JCRB cell No: JCRB1210) and HUT102 (ATL-derived cell line, ATCC No: TIB-162), were used.\nEach nucleoside analogue reverse transcriptase inhibitor was added to the medium for cells at a final concentration of 100 μM. Cells were seeded on a 96-well plate at a concentration of 1×10^4 cells/100 μL/well and cultured for 0 hour (Day 0), 48 hours (2 days), 96 hours (4 days) or 168 hours (7 days). At each time point, the medium was collected. The amount of virus contained in the medium collected at each time point (pg/mL) was measured by HTLV-1 P19 ELISA kit (manufactured by Zeptometrix)."}, "[2]": {"test_system": "HOP—62 (lung cancer cell line lacking TDP1 expression)", "experiment": "Cellular proliferation (MTS) of lung cancer cell line HOP—62", "assay_type": "cell-based", "details": "100, 200 or 300 μM, 72 hours", "description": "Lung cancer cell lines lacking TDP1 expression, HOP—62 and NCI_H522, were used. NCI_H1299, a lung cancer cell line expressing TDP1, was used as a control. HOP—62 and NCI_H522 were provided by Dr. Pommier (DNA Repair. 2014 January; 13: 1-9).\nAbacavir was added to each of the cell lines at a concentration of 0 μM (DMSO was added instead of abacavir), 100 μM, 200 μM or 300 μM. The cells were seeded on a 96-well plate at a concentration of 3×10^3 cells/100 μL/well and cultured for 4 hours or 72 hours. After the culture of a predetermined time, MTS assay was performed using a reagent for cellular proliferation, test, Aqueous One Solution Cell Proliferation (trade name, manufactured by Promega), in the same manner as in Example 1. The cellular proliferation was represented by a ratio relative to that of the control (solvent control) on Day 0 that was regarded as 100%."}, "[3]": {"test_system": "H9 (non-HTLV-1-infected cell line)", "experiment": "Cellular proliferation (MTS assay), H9", "assay_type": "cell-based", "details": "100 μM", "description": "as §1\n(§2) This example used non-HTLV-1-infected cell lines: Jurkat (cell line derived from human T-cell leukemia, ATCC No: TIB-152), Kit225 (cell line derived from chronic T-cell leukemia, established in the laboratory of the inventors, Blood. 1987 October; 70 (4): 1069-72.), H9 (cell line derived from cutaneous T-cell lymphoma, ATCC No: HTB-176) and SUDHL6 (cell line derived from diffuse B cell lymphoma).\n(§3) The six types of nucleoside analogue reverse transcriptase inhibitors as used in Example 1 were used and cellular proliferation was examined in the same manner as in Example 1."}, "[4]": {"test_system": "ATL cell line, ED40515 (−)", "experiment": "Chromosome double-strand break (Giemsa chromosome specimens), ED40515 (−)", "assay_type": "cell-based", "details": "48 hours, abacavir 10-100 μM, zidovudine 10 or 100 μM", "description": "Abacavir was added to an ATL cell line, ED40515 (−), at a concentration of 0 μM (DMSO was added instead of abacavir), 10 μM, 25 μM, 50 μM, 75 μM or 100 μM. After the 48 hours culture, the cells were fixed by Carnoy and stained with Giemsa to prepare chromosome specimens in accordance with conventional methods. Similarly, zidovudine was added to ED40515 (−) at a concentration of 10 μM or 100 μM, and abacavir was added to a non-ATL cell line, Jurkat, at a concentration of 100 μM, and chromosome specimens were prepared. Chromosome images (100 or more images per group) were observed by an optical microscope. The cells were determined as being positive for double-strand break (DSB) when at least one chromosome break was found."}, "[5]": {"test_system": "Kit225 (non-HTLV-1-infected cell line)", "experiment": "Cellular proliferation (MTS assay), Kit225", "assay_type": "cell-based", "details": "100 μM", "description": "as §1, §2, §3"}}, "data": [{"smiles": "Nc1nc(NC2CC2)c2ncn([C@H]3C=C[C@@H](CO)C3)c2n1", "note": "[abacavir, (−)-(1S,4R)-4-[2-amino-6-(cyclopropylamino)-9H-purin-9-yl]-2-cyclopentene-1-methanol]", "values": [{"measurement": "cellular proliferation", "setting": "[1]; 100 μM", "result": "strong suppressive effect"}, {"measurement": "cellular proliferation, dose dependence", "setting": "[1]; 10-100 μM, Day 0, 2, 4", "result": "suppressed cellular proliferation of all the cell lines in a dose-dependent manner"}, {"measurement": "viral production (amount of virus in the medium)", "setting": "HTLV-1", "result": "most strongly suppressed"}, {"measurement": "cellular proliferation", "setting": "[2]", "result": "suppressed cellular proliferation of HOP—62 and NCI_H522 lacking TDP1 expression in a concentration dependent manner"}, {"measurement": "cellular proliferation", "setting": "[3]", "result": "did not exhibit a suppressive effect"}, {"measurement": "ratio of double-strand break-positive cells", "setting": "[4]", "result": "increased the ratio of double-strand break-positive cells in a dose-dependent manner"}, {"measurement": "cellular proliferation", "setting": "[5]", "result": "did not exhibit a suppressive effect"}]}]}
